Measurements reported in patent US12466816B2, “Fused cyclic compound capable of degrading protein and use thereof” (Medshine Discovery Inc., priority 2019, dated 2025).

System: Hep3B and SNU182 cells
Assay: Growth curves of stable CRBN knockout cell lines (pool)
Type: cell-based
Settings: 10 μM
Protocol: The sgRNA sequence targeting CRBN was inserted into lenti Crispr V2 plasmid, the virus was co-packaged with the packaging vectors psPAX2 and pVSVG, and the cells were infected; screening was performed with puromycin (Invitrogen, A1113803) and the knockout of CRBN was identified by Western blot; finally, the cell growth was detected to calculate the survival rate.
Stable CRBN knockout cell lines (pool) were established in Hep3B and SNU182 cells, respectively, and treated with WX106 (10 μM) or solvent; the growth of cells was detected at different time points and the growth curves were drawn.

SMILES: Cc1ccc(C(=O)Nc2ccc3occ(C4CCC(=O)NC4=O)c3c2)cc1Cl (centres unmarked) [WX106]
- sensitivity of cells with normal CRBN expression (growth curve) (Hep3B and SNU182): very sensitive
- growth rate of low-CRBN-expression cells compared with the solvent group (Hep3B and SNU182 CRBN knockout pools): no significant difference
